Data from patent publication US6180653A, “Aminopyrazole derivatives” (Banyu Pharmaceutical Co., Ltd., priority 1996, dated 2001).

Target: T1, human NPY Y5 receptor (Homo sapiens, UniProt Q15761)
T1 construct: expressed in transfected cells
T1 sequence (Q15761 1-445): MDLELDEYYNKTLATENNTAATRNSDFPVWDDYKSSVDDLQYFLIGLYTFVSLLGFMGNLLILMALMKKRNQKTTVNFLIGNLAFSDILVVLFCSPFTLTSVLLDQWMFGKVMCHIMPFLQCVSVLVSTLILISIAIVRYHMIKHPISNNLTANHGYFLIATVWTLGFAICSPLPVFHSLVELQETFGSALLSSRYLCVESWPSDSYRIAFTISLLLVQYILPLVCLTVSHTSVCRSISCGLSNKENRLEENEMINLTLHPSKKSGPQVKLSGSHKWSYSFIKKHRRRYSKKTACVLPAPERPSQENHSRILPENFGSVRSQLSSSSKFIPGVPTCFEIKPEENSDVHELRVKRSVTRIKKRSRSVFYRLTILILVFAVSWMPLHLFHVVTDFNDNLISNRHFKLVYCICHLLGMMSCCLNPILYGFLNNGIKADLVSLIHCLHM
Test: test of inhibition of NPY binding ([125I] peptide YY binding to membranes of NPY Y5 receptor-expressing cells)
Settings: [125I] peptide YY 20,000 cpm, 25° C., 2 hours, pH 7.4; membranes of transfected COS-7, CHO or LM(tk-) cells; read-out: concentration needed to inhibit 50% of the specific binding to the peptide YY (IC50 value)
From the text: cDNA Sequence encoding a human NPY Y5 receptor [International Publication WO 96/16542] was cloned into expression vectors pcDNA3, pRc/RSV (manufactured by Invitrogen) and pCI-neo (manufactured by Promega). Using the cationic lipid method [see Proceedings of the National Academy of Science of the United States of America, vol.84, p.7413 (1987)], host cells COS-7, CHO and LM(tk-) (American Type Culture Collection) were transfected with the thus prepared expression vectors to obtain cells in which the NPY Y5 receptor had been expressed.
Each of the membrane preparations thus prepared from the cells in which the NPY Y5 receptor had been expressed was incubated together with each compound to be tested and 20,000 cpm of [^125 I,] peptide YY (manufactured by Amersham) at 25° C. for 2 hours in an assay buffer solution (25 mM HEPES buffer, pH 7.4, containing 10 mM magnesium chloride, 1 mM phenylmethylsulfonyl fluoride and 0.1% bacitracin) and then, the reaction mixture was filtered through a glass filter GF/C. After washing with 50 mM Tris buffer, pH 7.4, containing 0.3% BSA, radioactivity on the glass filter was measured using a gamma counter. […]

IC50: 8.3 nM
SMILES: COc1ccc(-c2cc(NC(=O)Cc3ccc4ccccc4c3)[nH]n2)cc1OC [Example 6]
